Data taken from patent US10219516B2, “Molecules having pesticidal utility, and intermediates, compositions, and processes, related thereto” (priority 2015, dated 2019).
Like-named read-outs stand apart in the source and are kept apart here.

Assays:
[1] = system: Beet Armyworm (Spodoptera exigua, LAPHEG); test: Bioassay on Beet Armyworm (BAW), 128-well diet tray assay; type: in vivo
Procedure, shortened: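 Percent mortality, averaged across eight replicate wells, was scored after five to seven days at 25° C. under a 14:10 light-dark cycle. Each well's diet carried 50 μg/cm^2 of the dried test molecule and held one to five second instar larvae.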

[2] = system: Cabbage Looper (Trichoplusia ni, TRIPNI); test: Bioassay on Cabbage Looper (CL), 128-well diet tray assay; type: in vivo; details: Trichoplusia ni
Procedure, shortened: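 Test molecule is dissolved in 90:10 acetone-water and applied at 50 μg/cm^2 onto artificial diet, then dried. One to five second-instar larvae go into each of eight wells. Trays, sealed but vented, stay at 25° C., 14:10 light-dark, five to seven days, after which mortality is averaged.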

[3] = Beet Armyworm, 128-well diet tray assay, read-out: BAW rating
[4] = Cabbage Looper, 128-well diet tray assay, read-out: CL rating
[5] = Species BAW (Beet Armyworm), read-out: BAW (Biological Results, rating)
[6] = Species CL (Cabbage Looper), read-out: CL (Biological Results, rating)

Row | Compound | pest or weed control at 50 µg/cm2 [1, 3] [%] | pest or weed control at 50 µg/cm2 [2, 4] [%] | pest or weed control at 50 µg/cm2 [1, 5] [%] | pest or weed control at 50 µg/cm2 [2, 6] [%]
1 | COc1ccc([C@H]2[C@H](C(=O)Nc3ccc(Cl)c(C(=O)Nc4ccc(F)cc4)c3)C2(Cl)Cl)cc1 (relative stereo) [PF65, trans-2-Chloro-5-(2,2-dichloro-3-(4-methoxyphenyl)cyclopropane-1-carboxamido)-N-(4-fluorophenyl)benzamide] | 50 to 100 | 50 to 100 |  | 
2 | O=C(Nc1ccc(F)c(C(F)(F)F)c1)c1cc(NC(=O)[C@H]2[C@H](c3cc(Cl)cc(Cl)c3)C2(Cl)Cl)ccc1Cl (relative stereo) [PF70, trans-2-Chloro-5-(2,2-dichloro-3-(3,5-dichlorophenyl)cyclopropane-1-carboxamido)-N-(4-fluoro-3-(trifluoromethyl)phenyl)benzamide] | 50 to 100 | 50 to 100 |  | 
3 | Cc1cc([N+](=O)[O-])ccc1NC(=O)c1cc(NC(=O)[C@H]2[C@H](c3cc(Cl)cc(Cl)c3)C2(Cl)Cl)ccc1Cl (relative stereo) [PF75, trans-2-Chloro-5-(2,2-dichloro-3-(3,5-dichlorophenyl)cyclopropane-1-carboxamido)-N-(2-methyl-4-nitrophenyl)benzamide] | 50 to 100 | 50 to 100 |  | 
4 | O=C(Nc1ccc(NC(=O)c2cc(NC(=O)[C@H]3[C@H](c4cc(Cl)cc(Cl)c4)C3(Cl)Cl)ccc2Cl)cc1)c1ccccc1 (relative stereo) [PF104, trans-N-(4-Benzamidophenyl)-2-chloro-5-(2,2-dichloro-3-(3,5-dichlorophenyl)cyclopropane-1-carboxamido)benzamide] | 50 to 100 | 50 to 100 |  | 
5 | N#CC1(C(=O)Nc2ccc(NC(=O)c3cc(NC(=O)[C@H]4[C@H](c5cc(Cl)cc(Cl)c5)C4(Cl)Cl)ccc3Cl)cc2)CC1 (relative stereo) [PF109, trans-2-Chloro-N-(4-(1-cyanocyclopropane-1-carboxamido)phenyl)-5-(2,2-dichloro-3-(3,5-dichlorophenyl)cyclopropane-1-carboxamido)benzamide] | 50 to 100 | 50 to 100 |  | 
6 | O=C(Nc1nc(C(F)(F)F)cs1)c1cc(NC(=O)[C@H]2[C@H](c3cc(Cl)cc(Cl)c3)C2(Cl)Cl)ccc1Cl (relative stereo) [PF134, trans-2-Chloro-5-(2,2-dichloro-3-(3,5-dichlorophenyl)cyclopropane-1-carboxamido)-N-(4-(trifluoromethyl)thiazol-2-yl)benzamide] | 50 to 100 | 50 to 100 |  | 
7 | Cc1ccc(-c2csc(NC(=O)c3cc(NC(=O)[C@H]4[C@H](c5cc(Cl)cc(Cl)c5)C4(Cl)Cl)ccc3Cl)n2)cc1 (relative stereo) [PF136, trans-2-Chloro-5-(2,2-dichloro-3-(3,5-dichlorophenyl)cyclopropane-1-carboxamido)-N-(4-(p-tolyl)thiazol-2-yl)benzamide] | 50 to 100 | 50 to 100 |  | 
8 | O=C(Nc1cc(C(F)(F)F)[nH]n1)c1cc(NC(=O)[C@H]2[C@H](c3cc(Cl)cc(Cl)c3)C2(Cl)Cl)ccc1Cl (relative stereo) [PF138, trans-2-Chloro-5-(2,2-dichloro-3-(3,5-dichlorophenyl)cyclopropane-1-carboxamido)-N-(5-(trifluoromethyl)-1H-pyrazol-3-yl)benzamide] | 50 to 100 | 50 to 100 |  | 
9 | COc1c(Cl)cc([C@H]2[C@H](C(=O)Nc3ccc(Cl)c(C(=O)Nc4ccc(F)cc4)c3)C2(Cl)Cl)cc1Cl (relative stereo) [PF156, trans-2-Chloro-5-(2,2-dichloro-3-(3,5-dichloro-4-methoxyphenyl)cyclopropane-1-carboxamido)-N-(4-fluorophenyl)benzamide] | 50 to 100 | 50 to 100 |  | 
10 | O=C(Nc1ccc(NC(=O)C2(C(F)(F)F)CC2)cc1)c1cc(NC(=O)[C@H]2[C@H](c3cc(Cl)cc(Cl)c3)C2(Cl)Cl)ccc1Cl (relative stereo) [PF162, trans-2-Chloro-5-(2,2-dichloro-3-(3,5-dichlorophenyl)cyclopropane-1-carboxamido)-N-(4-(1-(trifluoromethyl)cyclopropane-1-carboxamido)phenyl)benzamide] | 50 to 100 | 50 to 100 |  | 
11 | CC(C)(C)CC(=O)Nc1ccc(NC(=O)c2cc(NC(=O)[C@H]3[C@H](c4cc(Cl)cc(Cl)c4)C3(Cl)Cl)ccc2Cl)cc1 (relative stereo) [PF164, trans-2-Chloro-5-(2,2-dichloro-3-(3,5-dichlorophenyl)cyclopropane-1-carboxamido)-N-(4-(3,3-dimethylbutanamido)phenyl)benzamide] | 50 to 100 | 50 to 100 |  | 
12 | O=C(Nc1c(F)cccc1F)c1cc(NC(=O)C2C(c3cc(Cl)cc(Cl)c3)C2(Cl)Br)ccc1Cl (stereo not drawn) [F168, 5-(trans)-2-Bromo-2-chloro-3-(3,5-dichlorophenyl)cyclopropane-1-carboxamido)-2-chloro-N-(2,6-difluorophenyl)benzamide] |  |  | 50 to 100 | 50 to 100
13 | Cc1cc(NC(=O)OC(C)(C)C)ccc1NC(=O)c1cc(NC(=O)[C@H]2[C@H](c3cc(Cl)c(Cl)c(Cl)c3)C2(Cl)Cl)ccc1Cl [F278, tert-Butyl (4-(2-chloro-5-((1R,3R)-2,2-dichloro-3-(3,4,5-trichlorophenyl)cyclopropane-1-carboxamido)benzamido)-3-methylphenyl)carbamate] |  |  | 50 to 100 | 50 to 100
14 | O=C(Nc1cc(F)cc([N+](=O)[O-])c1)c1cc(NC(=O)[C@H]2[C@H](c3ccc(Cl)c(Cl)c3)C2(Cl)Cl)ccc1Cl [F416, 2-Chloro-5-((1R,3R)-2,2-dichloro-3-(3,4-dichlorophenyl)cyclopropane-1-carboxamido)-N-(3-fluoro-5-nitrophenyl)benzamide] | 50 to 100 | 50 to 100 |  | 
15 | O=C(Nc1nc2cc(Cl)ccc2o1)c1cc(NC(=O)C2C(c3cc(Cl)cc(Cl)c3)C2(Cl)Cl)ccc1Cl (stereo not drawn) [F448, 2-Chloro-N-(5-chlorobenzo[d]oxazol-2-yl)-5-(trans)-2,2-dichloro-3-(3,5-dichlorophenyl)cyclopropane-1-carboxamido)benzamide] | 50 to 100 | 50 to 100 |  | 
16 | O=C(Nc1nc2ccc(F)cc2[nH]1)c1cc(NC(=O)C2C(c3cc(Cl)cc(Cl)c3)C2(Cl)Cl)ccc1Cl (stereo not drawn) [F451, 2-Chloro-5-(trans)-2,2-dichloro-3-(3,5-dichlorophenyl)cyclopropane-1-carboxamido)-N-(6-fluoro-1H-benzo[d]imidazol-2-yl)benzamide] | 50 to 100 | 50 to 100 |  | 
17 | Cc1cc(NS(C)(=O)=O)ccc1NC(=O)c1cc(NC(=O)C2C(c3cc(Cl)cc(Cl)c3)C2(Cl)Cl)ccc1Cl (stereo not drawn) [F487, 2-chloro-5-(trans)-2,2-dichloro-3-(3,5-dichlorophenyl)cyclopropane-1-carboxamido)-N-(2-methyl-4-(methylsulfonamido)phenyl)benzamide] | 50 to 100 | 50 to 100 |  | 
18 | CC(C)(C)OC(=O)N(C(=O)OC(C)(C)C)c1c(F)ccc(NC(=O)c2cc(NC(=O)[C@H]3[C@H](c4ccc(Cl)c(Cl)c4)C3(Cl)Cl)ccc2Cl)c1F [F500, tert-Butyl-N-((tert-butoxy)carbonyl)-N-(3-(2-chloro-5-((1R,3R)-2,2-dichloro-3-(3,4-dichlorophenyl)cyclopropane-1-carboxamido)benzamido)-2,6-difluorophenyl)carbamate] | 50 to 100 | 0 to 50 |  | 
19 | CC(C)(C)OC(=O)N(C(=O)OC(C)(C)C)c1c(F)ccc(NC(=O)c2cc(NC(=O)[C@H]3[C@H](c4ccc(F)c(Cl)c4)C3(Cl)Cl)ccc2Cl)c1F [F503, tert-Butyl-N-((tert-butoxy)carbonyl)-N-(3-(2-chloro-5-((1R,3R)-2,2-dichloro-3-(3-chloro-4-fluorophenyl)cyclopropane-1-carboxamido)benzamido)-2,6-difluorophenyl)carbamate] | 50 to 100 | 50 to 100 |  | 
20 | CC(C)(C)OC(=O)N(C(=O)OC(C)(C)C)c1c(F)ccc(NC(=O)c2cc(NC(=O)C3C(c4ccc(Cl)c(Br)c4)C3(Cl)Cl)ccc2Cl)c1F (centres unmarked) [F513, tert-Butyl-N-((tert-butoxy)carbonyl)-N-(3-(5-(3-(3-bromo-4-chlorophenyl)-2,2-dichlorocyclopropane-1-carboxamido)-2-chlorobenzamido)-2,6-difluorophenyl)carbamate] | 50 to 100 | 50 to 100 |  | 
21 | CC(C)(C)OC(=O)N(C(=O)OC(C)(C)C)c1cc(NC(=O)c2cc(NC(=O)[C@H]3[C@H](c4cc(Cl)cc(Cl)c4)C3(Cl)Cl)ccc2Cl)c(F)cc1F [F519, tert-Butyl-N-((tert-butoxy)carbonyl)-N-(5-(2-chloro-5-((1R,3R)-2,2-dichloro-3-(3,5-dichlorophenyl)cyclopropane-1-carboxamido)benzamido)-2,4-difluorophenyl)carbamate] | 50 to 100 | 50 to 100 |  | 
22 | CC(C)(C)OC(=O)N(C(=O)OC(C)(C)C)c1cc(NC(=O)c2cc(NC(=O)[C@H]3[C@H](c4ccc(Cl)c(Cl)c4)C3(Cl)Cl)ccc2Cl)c(F)cc1F [F520, tert-Butyl-N-((tert-butoxy)carbonyl)-N-(5-(2-chloro-5-((1R,3R)-2,2-dichloro-3-(3,4-dichlorophenyl)cyclopropane-1-carboxamido)benzamido)-2,4-difluorophenyl)carbamate] | 50 to 100 | 50 to 100 |  | 
